Structures can show the parent of a compound that is named as a salt. Where two headings read alike, the source gives them in different places.
Tests used:
[1] = target: Aminopeptidase N (APN) (Homo sapiens (Human), UniProt P15144); assay: Inhibition of aminopeptidase N in vitro (L-leucyl p-nitroaniline substrate, absorbance 405 nm); type: biochemical; settings: average of three tests
From the text: Aminopeptidase N interacts with its commercial substrate L-leucyl p-nitroaniline (purchased from Sigma) to produce p-nitroaniline that is absorbed at 405 nm, and the concentration of p-nitroaniline is positively correlated to the enzyme activity. Measure the absorbance at 405 nm, and calculate the inhibition rate based on the absorbance of the inhibitor group and the control group, and calculate the IC50 value.

[2] = target: 20S Proteasome (Homo sapiens (Human), UniProt P28074); assay: 20S proteasome detection kit, in vitro proteasome activity test (7-AMC fluorescence); type: biochemical; settings: average of three tests
From the text: The proteasome interacts with its substrate to produce the fluorescent substance 7-amino-4-methylcoumarin (7-AMC), and the concentration of 7-AMC is positively correlated with the activity of the proteasome. Measure the fluorescence intensity at 380/460 nm to calculate the inhibition rate based on the absorbance of the inhibitor group and the control group, and calculate the IC50 value.

[3] = tested on: Human leukemia K562 cell line; assay: MTT cell proliferation inhibition, K562; type: cell-based; settings: average of three tests, read-out: IC50 tumor cell proliferation, K562
From the text: (§1) The in vitro cell proliferation inhibitory activity test of the target compound adopts the MTT method. Human leukemia K562 cell line, human myeloma U266 cell line, human lung cancer A549 cell, human prostate cancer PC-3 cell line, human lymphoma U937 cell line, human liver cancer PLC/PRF/5 cell line, and human embryonic kidney cell HEK293, human normal hepatocyte HL7702 were taken, and all adopted routine culture. Logarithmic growth phase cells were used in the experiment. The cell suspensions of the above cells were taken and counted under an inverted microscope, and the medium was added to adjust the number of cells to 1×10^5/mL. A 96-well cell culture plate was taken for cell inoculation and drug experiment. The peripheral holes are not used (filled with sterile PBS). Blank control group, negative control group, positive control group and a drug experiment group were set up. The blank control group only added 150 L/Well of cell culture solution, the negative control group was inoculated with 100 µL/well of cell suspension and 50 µL/well of cell culture medium was added, the positive control group was inoculated with 100 µL/well of cell suspension and 50 µL/well of positive control drug solution was added, and the drug experiment group was inoculated with 100 L/Well of cell suspension and 50 µL/well of the test compound solution was added, the positive control group and the drug experimental group are respectively set up with 5 different final drug concentrations: […], 3 parallel re-wells for each drug concentration. After the drug was added, the 96-well cell culture plate was incubated at 37° C., 5% CO2 and saturated humidity for 48 hours, and 10 μL of 0.5% MTT staining solution was added to each well. […] Measure the OD value of each well with a microplate reader at a wavelength of 570 nm, and the cell growth inhibition rate is calculated according to the following formula: […]

[4] = tested on: human myeloma U266 cell line; assay: MTT cell proliferation inhibition, U266; type: cell-based; settings: average of three tests, read-out: IC50 tumor cell proliferation, U266
From the text: as §1

[5] = tested on: human lung cancer A549 cell; assay: MTT cell proliferation inhibition, A549; type: cell-based; settings: average of three tests, read-out: IC50 tumor cell proliferation, A549
From the text: as §1

[6] = tested on: human prostate cancer PC-3 cell line; assay: MTT cell proliferation inhibition, PC-3; type: cell-based; settings: average of three tests, read-out: IC50 tumor cell proliferation, PC-3
From the text: as §1

[7] = tested on: human lymphoma U937 cell line; assay: MTT cell proliferation inhibition, U937; type: cell-based; settings: average of three tests, read-out: IC50 tumor cell proliferation, U937
From the text: as §1

[8] = tested on: human liver cancer PLC/PRF/5 cell line; assay: MTT cell proliferation inhibition, PLC/PRF/5; type: cell-based; settings: average of three tests, read-out: IC50 tumor cell proliferation, PLC/PRF/5
From the text: as §1

[9] = tested on: human embryonic kidney cell HEK293; assay: MTT proliferation inhibition on normal human cells, HEK293; type: cell-based; settings: 48 hours, average of three tests
From the text: (§2) The in vitro cell proliferation inhibitory activity test of the target compound adopts the MTT method. Human leukemia K562 cell line, human myeloma U266 cell line, human lung cancer A549 cell, human prostate cancer PC-3 cell line, human lymphoma U937 cell line, human liver cancer PLC/PRF/5 cell line, and human embryonic kidney cell HEK293, human normal hepatocyte HL7702 were taken, and all adopted routine culture. Logarithmic growth phase cells were used in the experiment. The cell suspensions of the above cells were taken and counted under an inverted microscope, and the medium was added to adjust the number of cells to 1×10^5/mL. A 96-well cell culture plate was taken for cell inoculation and drug experiment. The peripheral holes are not used (filled with sterile PBS). Blank control group, negative control group, positive control group and a drug experiment group were set up. […] Measure the OD value of each well with a microplate reader at a wavelength of 570 nm, and the cell growth inhibition rate is calculated according to the following formula: […]

[10] = tested on: human normal hepatocyte HL7702; assay: MTT proliferation inhibition on normal human cells, HL7702; type: cell-based; settings: L02, 48 hours, average of three tests
From the text: as §2

[11] = tested on: macrophages; assay: Function test of clearance rate of charcoal particles (macrophage phagocytosis) in mice; type: in vivo, Kunming mice; settings: for carbon clearance index (K) / phagocytosis index(α): mice, administered 2 weeks, mean ± standard deviation
Description: The mononuclear macrophage system is a very important defense system, which has a powerful ability to swallow and clear foreign particles. When a certain concentration of charcoal particles enters the body through the tail vein of the mice, they are carried to the liver, spleen, etc. by the flow of blood, and the macrophages of these organs can remove these charcoal particles. Within a certain concentration range, the rate of macrophages' elimination of charcoal particles is exponentially related to their dose, that is, the rate of phagocytosis is directly proportional to the concentration of charcoal particles in the blood. Therefore, taking the logarithm of the concentration of charcoal particles in the blood of mice as the ordinate and the time as the abscissa, the slope K represents the phagocytic rate of macrophages, but this is an uncorrected phagocytic index. In fact, its phagocytic activity is also related to the weight of the liver and spleen of mice. Different weights result in different K values. Therefore, it is generally expressed by the corrected phagocytic index α, which reflects the phagocytic activity per unit tissue weight. The calculation formulas of K and a are as follows: K=(log A1−log A2)/(t2−t1) α=(k^1/3×body weight)/(liver weight+spleen weight)
Materials: Kunming mice (female, 4-5 weeks old), Indian ink, normal saline, Na2CO3 solution (0.1% g/v), UV ultraviolet visible photometer.
Kunming mice were randomly divided into groups and administered for 2 weeks. One hour after the last administration, each mouse was injected intravenously with 0.1 mL/10 g of Indian ink 5 times diluted with normal saline, and started timing immediately after injection, 20 μL of blood samples were accurately collected from the orbital venous plexus and added into 2 mL of 0.1% Na2CO3 solution at 2 min (t1) and 10 min (t2) time points, respectively. After mixing evenly, use 0.1% Na2CO3 solution as the control group, each administration group was the experimental group, the absorbance at two time points of t1 and t2 were measured by ultraviolet spectrophotometer at 600 nm, and counted as A1 and A2. The clearance index is calculated by the calculation formula of the above K value. In addition, after the completion of blood collection, the mice were sacrificed by neck removal, and the liver and spleen were taken out and weighed. Calculate the phagocytic index α.

[12] = tested on: liver cancer H22; assay: Inhibition of liver cancer H22 lung metastasis in mice; type: in vivo, Kunming mice; settings: intragastric administration, 2.69-4.48 mg/kg, two cycles; FIG. 1-4
Description: Take well-grown H22 mice with liver cancer, extract ascites, add sterile PBS solution to dilute to a concentration of 2.5×10^7/mL, and inoculate Kunming mice through tail vein with 200 μL each. The Kunming mice with overweight or underweight were excluded, randomly grouped, and the drug was administrated according to the dosing schedule.
The Kunming mice inoculated with H22 tumors were weighed and randomly divided into the following 6 groups, with 7 mice in each group. […] The mice were sacrificed 13 days after the inoculation. The calculation formula for the inhibition rate of lung metastasis of liver cancer was as follows: […]

[13] = tested on: H22 liver ascites model; assay: Survival test of H22 liver ascites model; type: in vivo, Kunming mice; settings: equal molar amount with Ixazomib, FIG. 5-6
Description: Take well-grown H22 mice with liver cancer, extract ascites, add sterile PBS solution to dilute to a concentration of 2.5×10^7/mL, and inoculate the abdominal cavity of Kunming mice with 200 μL each. 5 days later, the animals were randomly grouped to administrate the drug. The day of inoculation was the first day. The body weight of the animals was recorded at the time of administration. The mice were randomly weighed and divided into the following 6 groups, with 10 mice in each group. […] The mice were administered according to the predetermined dosage, weighed and recorded respectively.
(§3) Use Origin7.5 software's one-way analysis of variance (One-Way ANOVA) function to calculate the overall difference; use t-test to compare each group with the blank group, and the life extension rate of each drug group was calculated by the following formula: […]

[14] = tested on: B16F10 melanoma cells; assay: Subcutaneous tumor survival test with B16F10 melanoma cells; type: in vivo, C57 mice
Description: The B16F10 melanoma cells in the logarithmic growth phase were taken, diluted with sterile PBS solution to a concentration of 1.5×10^7 cells/mL, and inoculated them subcutaneously in C57 mice with 150 μL each. 5 days later, the animals were randomly assigned to administer the drug. The day of inoculation was the first day. The body weight of the animals was recorded at the time of administration. The mice were randomly weighed and divided into the following 5 groups. […] The mice were administered according to the predetermined dosage, weighed and recorded respectively. Continuous observation until the death of the mouse was the end of observation, and the time of death of each mouse was recorded. The time of death of the mice in each group was counted.
as §3

[15] = Homo sapiens, PLC-PRF-5, 48 hours

Sequence of Aminopeptidase N (APN) (P15144 whole entry, species assumed): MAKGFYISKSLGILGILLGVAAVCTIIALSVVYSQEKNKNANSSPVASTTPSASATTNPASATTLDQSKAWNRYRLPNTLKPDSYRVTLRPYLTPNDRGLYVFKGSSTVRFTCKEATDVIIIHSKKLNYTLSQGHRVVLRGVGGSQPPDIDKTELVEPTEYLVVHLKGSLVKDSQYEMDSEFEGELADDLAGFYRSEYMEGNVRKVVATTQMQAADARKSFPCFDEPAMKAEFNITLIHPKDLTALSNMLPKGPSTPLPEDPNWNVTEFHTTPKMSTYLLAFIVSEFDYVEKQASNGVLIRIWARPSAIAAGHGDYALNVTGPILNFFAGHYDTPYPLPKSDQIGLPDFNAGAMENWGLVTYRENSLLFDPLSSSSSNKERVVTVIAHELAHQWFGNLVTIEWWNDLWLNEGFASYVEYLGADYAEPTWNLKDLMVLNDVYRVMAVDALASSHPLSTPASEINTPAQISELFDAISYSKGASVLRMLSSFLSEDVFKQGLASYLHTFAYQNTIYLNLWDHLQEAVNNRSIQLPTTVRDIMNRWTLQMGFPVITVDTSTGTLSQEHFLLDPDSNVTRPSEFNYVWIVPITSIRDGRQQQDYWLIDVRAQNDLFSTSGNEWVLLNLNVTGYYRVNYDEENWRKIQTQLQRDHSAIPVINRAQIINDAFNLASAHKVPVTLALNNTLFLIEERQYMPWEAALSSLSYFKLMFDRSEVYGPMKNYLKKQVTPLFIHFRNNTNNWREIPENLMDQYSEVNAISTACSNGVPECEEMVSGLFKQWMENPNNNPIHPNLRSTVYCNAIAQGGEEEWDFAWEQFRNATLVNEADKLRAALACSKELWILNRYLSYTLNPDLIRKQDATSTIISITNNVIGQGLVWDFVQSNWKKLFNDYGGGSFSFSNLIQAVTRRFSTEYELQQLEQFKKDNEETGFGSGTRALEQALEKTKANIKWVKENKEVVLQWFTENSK

Row | SMILES | IC50 [1] | IC50 [2] | IC50 ([3]; Homo sapiens, K562, 48 hours) | IC50 ([4]; Homo sapiens, U-266, 48 hours) | IC50 ([5]; Homo sapiens, A549, 48 hours) | IC50 ([6]; Homo sapiens, PC-3, 48 hours) | IC50 ([7]; Homo sapiens, U-937, 48 hours) | IC50 [8, 15] | IC50 [9] | IC50 [10] | also measured
1 | CC(C)C[C@H](NC(=O)[C@@H](O)[C@H](N)Cc1ccccc1)B1OC(=O)C(CC(=O)O)(CC(=O)O)O1 [Bestazomib Citrate, 2,2′-(2-((R)-1-((2S,3R)-3-amino-2-hydroxy-4-phenylbutanoylamino)-3-methylbutyl)-5-oxo-1,3,2-dioxaborolan-4,4-diyl) diacetic acid] | 2.14 µM | 8.56 µM | 12.3 ± 1.46 µM | 21.7 ± 1.87 µM | 63.6 ± 5.71 µM | 45.6 ± 3.16 µM | 6.42 ± 0.64 µM | 54.7 ± 4.12 µM | 446 ± 19.4 µM | 371 ± 70.9 µM | phagocytic ability of macrophages in mice ([11]; compared with positive control Ixazomib): significantly stronger than that of the positive control Ixazomib; carbon clearance index (K) ([11]; high-dose 4.48 mg/kg/4 d po.): 0.063 ± 0.0002; phagocytosis index(α) ([11]; high-dose 4.48 mg/kg/4 d po.): 21.628 ± 0.026; carbon clearance index (K) ([11]; low-dose 2.69 mg/kg/4 d po.): 0.066 ± 0.0077; phagocytosis index(α) ([11]; low-dose 2.69 mg/kg/4 d po.): 24.842 ± 0.969; carbon clearance index (K) ([11]; medium-dose 3.59 mg/kg/4 d po.): 0.076 ± 0.0016; phagocytosis index(α) ([11]; medium-dose 3.59 mg/kg/4 d po.): 21.620 ± 0.154; anti-tumor activity (H22 lung metastasis) [12]: strong anti-tumor activity; survival time of mice [13]: better than the prolonged time of the positive drug Ixazomib; survival time of B16F10 melanoma mice ([14]; 4, 6, 9 mg/kg/4d, FIG. 7): significantly prolong the survival time; survival time of mice compared with Ixazomib ([14]; medium-dose 6 mg/kg/4d and high-dose 9 mg/kg/4d vs Ixazomib 4 mg/kg/4d): better survival time of mice in the medium-dose and high-dose than the positive drug Ixazomib
2 | CC(C)C[C@H](NC(=O)[C@@H](O)[C@H](N)Cc1ccccc1)C(=O)O [Bestatin, reference compound] | – | – | – | – | – | – | – | – | – | – | IC50 ([3]; 48 hours): > 200 µM; IC50 ([4]; 48 hours): > 200 µM; IC50 ([5]; 48 hours): > 200 µM; IC50 ([6]; 48 hours): > 200 µM; IC50 ([7]; 48 hours): > 200 µM; IC50 ([8]; 48 hours): > 200 µM
3 | CC(C)C[C@H](NC(=O)CNC(=O)c1cc(Cl)ccc1Cl)B(O)O [Ixazomib, reference compound] | 18.2 µM | – | – | – | – | – | – | – | 17.1 ± 2.27 µM | 4.04 ± 0.63 µM | –
4 | CC(C)C[C@H](NC(=O)[C@@H](O)[C@H](N)Cc1ccccc1)B(O)O [Bestazomib, (R)-1-((2S,3R)-3-amino-2-hydroxy-4-phenylbutyramide)-3-methylbu tylboronic acid] | 3.87 µM | 10.2 µM | 37.1 ± 2.28 µM | 36.6 ± 2.07 µM | 98.4 ± 7.51 µM | 65.7 ± 5.83 µM | 15.5 ± 1.41 µM | 79.6 ± 6.32 µM | – | – | –
